Experimental data published in EP1932831A1, “1,2-Diarylacetylene Derivatives of Acyltryptophanols” (Bayer Schering Pharma Aktiengesellschaft, priority 2006, dated 2008).

Target: T1, human FSH receptor (Homo sapiens, UniProt P23945)
T1 construct: expressed in transfected cells; host or cells: CHO cells (hFSHR clone 16)
T1 sequence (P23945 18-695): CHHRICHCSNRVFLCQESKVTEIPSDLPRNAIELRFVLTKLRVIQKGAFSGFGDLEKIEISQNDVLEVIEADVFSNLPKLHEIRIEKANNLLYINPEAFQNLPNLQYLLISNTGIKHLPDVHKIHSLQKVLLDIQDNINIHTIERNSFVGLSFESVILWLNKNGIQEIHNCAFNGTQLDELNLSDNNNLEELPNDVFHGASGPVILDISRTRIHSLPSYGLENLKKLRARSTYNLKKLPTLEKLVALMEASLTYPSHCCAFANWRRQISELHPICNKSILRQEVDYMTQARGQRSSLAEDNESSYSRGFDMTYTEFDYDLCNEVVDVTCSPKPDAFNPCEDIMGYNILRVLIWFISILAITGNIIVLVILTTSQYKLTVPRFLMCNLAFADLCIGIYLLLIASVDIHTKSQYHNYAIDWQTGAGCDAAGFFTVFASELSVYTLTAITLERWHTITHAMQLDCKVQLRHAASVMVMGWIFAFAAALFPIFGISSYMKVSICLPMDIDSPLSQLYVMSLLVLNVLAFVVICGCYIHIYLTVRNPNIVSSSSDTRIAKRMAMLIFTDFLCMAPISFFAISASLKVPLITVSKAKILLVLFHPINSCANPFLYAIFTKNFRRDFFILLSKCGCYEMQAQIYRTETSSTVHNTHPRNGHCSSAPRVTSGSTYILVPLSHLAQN
Assay: HTRF assay for measuring cAMP in cells (FSH antagonism)
Type: cell-based
Conditions: FSH-antagonistic effect; hFSHR clone 16 cells (CHO cells stably transfected with the human FSH receptor); in the presence of 1e-9 mol/l hFSH; 37°C for 2h
Protocol: The method is based on a competitive immunoassay between native cAMP, which has been produced by the cells, and cAMP which is labelled with cAMPD2 conjugate. The tracer binding was visualized by a monoclonal antibody, anti-cAMP labelled with cryptate [HTRF = homogeneous time-resolved fluorescence]. The specific signal is inversely proportional to the cAMP concentration of the samples employed. The 665nm/ 620nm fluorescence ratio was evaluated.
Materials used: 96-well plates for the tissue culture, 96-well plates with black edge and black base (e.g. Fluotrac 600 from Greiner), 96-well plates for the substance dilutions of polypropylene and cAMP Femtomolar (4000wells Kit, CIS Bio International # 62AM5PEJ). Reagent used: BSA (bovine serum albumin) Fraction V protease-free, IBMX (3-isobutyl-1-methylxanthine), hFSH (human follicle stimulating hormone), Triton X-100 analytical grade, potassium fluoride analytical grade, G 418 (Geneticin) and Accutase.
Buffer 1 (washing and testing buffer) contained PBS, 1 mM CaCl2, 1 mM MgCl2, 0.2% glucose; 0.1% BSA, 1 mM IBMX.
Buffer 2 (2x lysis buffer) contained 1% Triton X-100 in PBS (without CaCl2 and MgCl2).
Buffer 3 (assay buffer) contained 50 mM potassium phosphate buffer (pH 7.0); 800 mM potassium fluoride; 0.2% BSA (always added fresh).
On day 1, the cells were seeded in 96-well plates (3x10^4 cells per well hFSHR clone 16 cells (CHO cells stably transfected with the human FSH receptor in 150 µl of medium). The next day, test substance dilutions were made up. For this purpose, all the substances were diluted in ice-cold buffer 1 (with or without hFSH), and the substance dilutions were placed on ice until applied to the cells. The cell supernatant was then aspirated off, and the cells were washed 2x with 200 µl of buffer 1. The cells were treated with 60 µl of the appropriate substance concentrations at 37°C for 2h. The cells were then lysed with 60 µl of buffer 2 (put onto the supernatant) (on a plate shaker at RT for 30 min). The test conjugates (cAMP-D2 and anti-cAMP cryptate, CIS Bio) were diluted in buffer 3 in accordance with the manufacturers' information. The actual mixture for measurement was pipetted into a black 96-well plate (in each case 15 µl of the cell lysate diluted with 35 µl of buffer 1; firstly 25 µl of cAMP-D2 conjugate were pipetted and, after 10 min, 25 µl of the anti-cAMP cryptate were added). This is followed by incubation at RT for 90 minutes. The measurement was carried out in a PheraStar (BMG).
Dose-effect curve (hFSH) for the human receptor: 1 e-8, 3e-9, 1 e-9, 3e-10, 1e-10, 3e-11, 1 e-11, 3e-12 mol/I. The test substances were employed in suitable dilutions in the absence (test for agonism) and in the presence of 1e-9 mol/l hFSH.
The values of the well ratio were averaged and then entered directly in SigmaPlot versus the concentrations. The maximum and minimum values were determined for each plate, and half the difference is to be regarded as IC50. […] Table 1. FSH-antagonistic effect of selected compounds in the HTRF assay

Row | IC50 [nM] | SMILES
1 | 150 | COc1ccccc1C#Cc1ccc(OC(C)C)c(C(=O)NC(CO)Cc2c[nH]c3ccc(F)cc23)c1 (stereo not shown) [Example 22, N-[2-(5-Fluoro-1H-indol-3-yl)-1-hydroxymethyl-ethyl]-2-isopropoxy-5-(2-methoxy-phenylethynyl)-benzamide]
2 | 7500 | COc1ccccc1C#Cc1ccc(OC(C)C)c(C(=O)N[C@H](CO)Cc2c[nH]c3ccccc23)c1 [Example 4, N-[(S)-1-Hydroxymethyl-2-(1H-indol-3-yl)-ethyl]-2-isopropoxy-5-(2-methoxy-phenylethynyl)-benzamide]
3 | 80 | Cc1ccccc1C#Cc1ccc(OC(C)C)c(C(=O)N[C@@H](CO)Cc2c[nH]c3ccccc23)c1 [Example 5, N-[(R)-1-Hydroxymethyl-2-(1H-indol-3-yl)-ethyl]-2-isopropoxy-5-o-tolylethynyl-benzamide]

Further lines, the molecule ahead of its results:

Row | SMILES | IC50 [nM]
4 | COc1ccccc1C#Cc1cc(C(=O)N[C@@H](CO)Cc2c[nH]c3ccccc23)c2ccccc2c1 [Example 6, 3-(2-Methoxy-phenylethynyl)-naphthalene-1-carboxylic acid [(R)-1-hydroxymethyl-2-(1H-indol-3-yl)-ethyl]-amide] | 100
5 | COc1ccccc1C#Cc1ccc(OC(C)C)c(C(=O)N[C@H](Cc2c[nH]c3ccccc23)C(C)(C)O)c1 [Example 20, N-[(R)-2-Hydroxy-1-(1H-indol-3-ylmethyl)-2-methyl-propyl]-2-isopropoxy-5-(2-methoxy-phenylethynyl)-benzamide] | 700
6 | CCn1cc(C[C@H](CO)NC(=O)c2cc(C#Cc3ccccc3OC)ccc2OC(C)C)c2ccccc21 [Example 24, N-[(R)-2-(1-Ethyl-1H-indol-3-yl)-1-hydroxymethyl-ethyl]-2-isopropoxy-5-(2-methoxy-phenylethynyl)-benzamide] | 20
7 | CCCOc1ccc(C#Cc2ccccc2OC)cc1C(=O)N[C@@H](CO)Cc1c[nH]c2ccccc12 [Example 2, N-[(R)-1-Hydroxymethyl-2-(1H-indol-3-yl)-ethyl]-5-(2-methoxyphenylethynyl)-2-propoxy-benzamide] | 70
8 | COc1ccccc1C#Cc1ccc(OC(C)C)c(C(=O)NC(CO)Cc2c[nH]c3cc(F)c(F)cc23)c1 (racemic) [Example 23, N-[(RS)-2-(5,6-Difluoro-1H-indol-3-yl)-1-hydroxymethyl-ethyl]-2-isopropoxy-5-(2-methoxy-phenylethynyl)-benzamide] | 30
9 | CCCOc1ccc(C#Cc2ccccc2)cc1C(=O)N[C@@H](CO)Cc1c[nH]c2ccccc12 [Example 1, N-[(R)-1-Hydroxymethyl-2-(1H-indol-3-yl)-ethyl]-5-phenylethynyl-2-propoxybenzamide] | 250
10 | CC(C)Oc1ccc(C#Cc2ccccc2)cc1C(=O)NC(CO)Cc1c[nH]c2ccc(F)cc12 (stereo not shown) [Example 21, N-[2-(5-Fluoro-1H-indol-3-yl)-1-hydroxymethyl-ethyl]-2-isopropoxy-5-phenylethynyl-benzamide] | 300
